Patent publication US20230173004A1, “Method and Composition for Treating Ringworm on Biotic and Abiotic Surfaces” (Jeneil Biosurfactant Company, LLC, priority 2021, published 2023)

Tested on: ringworm infection
Test: Treatment of ringworm infections on the skin of volunteer patients
Format: in vivo, human
Conditions: twin teenage boys; prescribed oral treatment
Protocol: The effectiveness of Composition A in treating fungal infections on the skin was determined on volunteer patients. In a first case, twin teenage boys were experiencing ringworm infections on the face, scalp, and neck. […] For […], the ringworm sores on […] face were treated by directly applying Composition A to the sores.
The other teenage child was treated with a 100% solution of Composition A by dabbing it on the sores of their scalp and neck using a cotton swab twice a day over the course of 3 days. Various sores were treated over the next four to seven days with a diluted solution of Composition A. In particular, a few drops of Composition A were diluted with 10 drops of water, and the diluted solution was applied to the sores. […] Thereafter, a 1:100 solution of Composition A in water was used as a preventative treatment on the scalp prior to showering to avoid new ringworm infections.
Thus, in a second test case, Composition A was used to treat a ringworm infection on the neck and shoulder region of a teenage child. Composition A was formulated with an aloe vera clear cream at a 2% w/v.
In a third case, a middle-aged person was experiencing a significant ringworm infection on one foot. The ringworm infection was treated with Composition A in an aloe vera clear cream at 2% w/v.

Q: How did the “ringworm infections on face, scalp and neck” value turn out when `OC(Cn1cncn1)(Cn1cncn1)c1ccc(F)cc1F` [oral fluconazole, fluconazole] was run?
A: Its value is “ineffective at completely eradicating the ringworm infection”.
